Consider 2 compounds from patent US12029732B2, “Treatment of vascular and lymphatic disease” (priority 2019, dated 2024).

Entries after “also recorded” stand apart in the source; their conditions may differ.

The subject of series [1] is RP27M2 (Rpl27a^low/+:Mdm2^+/−) mice. As to the kind of experiment: PFT / c-PFT treatment of pregnant mice carrying RP27M2 embryos (high-p53 lymphedema model). It is filed as in vivo, mouse. The settings on record: for cutaneous hemorrhaging / embryonic (in utero) lethality: RP27M2 mutants, mothers treated daily from E11.5 until delivery; for ratio of mutant pups at birth: RP27M2; for ratio of mutant pups at birth / edema: mothers treated daily from E11.5; for edema: RP27M2 pups. Here is the method: (§1) All mice were maintained on a C57BL/6J background. For timed pregnancies, the first day of observed plug were recorded as day 0.5 post-coitum or embryonic day 0.5 (E0.5). Mice haploinsufficient for the ribosomal protein L27a (Rpl27^low/+) are crossed with Mdm2 or Mdm4 heterozygous mice (Mdm2^+/− or Mdm4^+/−) to generate WT, Rpl27^low/+, Mdm2^+/−, Rpl27^low/+:Mdm2^+/− (RP27M2), Mdm4^+/−, and Rpl27^low/+:Mdm4^+/− mice (RP27M4). To generate mice on a p53-deficient background, we crossed Rpl27^low/+ mice to Mdm2^−/−:p53^−/− or Mdm4^−/−:p53^−/− mice. We therefore obtained RP27M2:p53^+/− mice and RP27M4:p53^+/− mice (FIG. 8). Genotypes were determined by PCR analysis of extracted DNA from tails using published primer sets for Mdm2, Mdm4, and p53. The sex of embryos was determined by detection of Sry and Raspn genes by PCR. Animal care and euthanasia guidelines of the Colorado Institutional Animal Care and Use Committee were followed for all animal work.
(§2) A 10 mM stock of Pifithrin-α (PFT-α, Selleck Bio, cat. S2929) was diluted 1:10 in 1×PBS, protected from light and used instantly. Pregnant mice were injected intraperitoneally from E11.5 to E16.5 and subcutaneously from E17.5 until delivery at 2.2 mg/kg of weight. Animal were monitored daily post-treatment and weights were recorded after delivery.
(§3) Tissues were fixed in 4% neutral buffered paraformaldehyde, processed, and embedded in paraffin by the UCD Research Histology core. Sagittal sections (5 μm) were subjected to immunofluorescence staining (IF) as previously described and according to the manufacturer's recommendations. The primary antibodies used for IF were monoclonal mouse Prox-1 (1:50, P21936, Thermofisher Scientific, Massachusetts, USA), monoclonal rabbit Lyve-1 (1:100, ab14917, Abcam Inc., California, USA), polyclonal rabbit Ki-67 (1:1000, VP-K451, Vector Laboratories, California, USA) and mouse monoclonal p21 (1:100, sc-6246, Santa Cruz Biotechnology, California, USA) antibodies. We used anti-rabbit or anti-mouse Alexa Fluor 594 or Alexa Fluor 488 conjugated secondary antibodies (1:1000, Invitrogen, California, USA), captured the images on a Nikon Eclipse 90i, and quantified using the ImageJ software. Pediatric lymphatic edema was categorized using the ISSVA Classification of Vascular Anomalies and confirmed by PdPn (D2-40 antibody, Ventana or RnD Systems AF3670) staining. IHC for p53 on human tissues were performed using the D-07 antibody (Ventana) on automated strainers (Ventana Ultra) following the manufacturer's recommendations and Clinical Laboratory Improvement Amendments (CLIA) certified procedures. For the visualization of the three-dimensional lymphatic vasculature, murine skin were fixed in 4% Paraformaldehyde (PFA) for 2-4 hours at room temperature for whole mount staining. Tissues were then subjected to procedures as published. H&E was performed following Harris protocols for staining.
(§4) To confirm the contribution of p53 overexpression to lymphedema, a pharmacological approach was used by testing a known reversible p53 negative modulator, Pifithrin-α (PFT). For this, time mating of Rpl27^low/+ mice was set up with Mdm2^+/−, or Mdm4^+/−, mice. Females carrying both models were injected intraperitoneally (IP) daily from E11.5 to […] and their weight gain was recorded until delivery. […] 100% of PFT-RP27M4 mice died did shortly after birth. […] It was speculated that the extent of phenotypic rescue at the low PFT dose used may be determined by the severity of the presentation. Therefore, increasing the amount of PFT given to the RP27M4 carrying mothers may allow for RP27M4 pups to survive.

Series [2] relates to RP27M4 (Rpl27a^low/+:Mdm4^+/−) mice. As to the kind of experiment: PFT / c-PFT treatment of pregnant mice carrying RP27M4 embryos (high-p53 lymphedema model). The settings on record: for cutaneous hemorrhaging / embryonic (in utero) lethality: RP27M4 mutants, mothers treated daily from E11.5 until delivery; for ratio of mutant pups at birth: RP27M4; for ratio of mutant pups at birth / edema: mothers treated daily from E11.5; for edema: RP27M4 pups. It is filed as in vivo, mouse. As to the method: as §1, §2, §3, §4

The conditions of series [3]: DMSO; cited from earlier work.

With `Br.Cc1ccc(-c2cn3c4c(sc3n2)CCCC4)cc1` [c-PFT, Cyclic pifithrin-α hydrobromide], the cutaneous hemorrhaging entry in series [1] and in series [2] was “eliminates visible skin hemorrhaging” throughout. Moreover, the “embryonic (in utero) lethality” value in series [1] (hydrobromide) and in series [2] (hydrobromide) was “rescued; also recorded: rescues in utero lethality” each time.
Consider `Br.Cc1ccc(C(=O)Cn2c3c(sc2=N)CCCC3)cc1` [PFT, 2-[2-Imino-4,5,6,7-tetrahydrobenzothiazol-3-yl]-1-p-tolylethanone hydrobromide], for which the solubility entry in series [3] is on record as “soluble”. For the same compound, the “appearance of treated pups compared with WT” value in series [1] (PFT-RP27M2 mice) is given as “indistinguishable from WT”. In addition, the “pups survived until at least 10 days old” value in series [1] (PFT-RP27M2 mice, 2.2 mg/kg to mothers) is reported as 100%. Also, the “subcutaneous edema, H&E staining of dorsal skin” value in series [1] (RP27M2, P0 skin) was “no evident subcutaneous edema”; in series [2] (RP27M4, P0 skin) it was “no evident subcutaneous edema”. Also, the “lymphatic vessel size, Lyve-1 staining of skin” value in series [1] (RP27M2, postnatal day 0 (P0)) is reported as “reverted to a normal size”; in series [2] (RP27M4, postnatal day 0 (P0)) it was “reverted to a normal size”. The “ratio of mutant pups at birth” value in series [1] (hydrobromide) was “born following a Mendelian ratio; also recorded: born at a Mendelian ratio”; in series [1] (listed as PFT-a, hydrobromide), “born at Mendelian ratio”; in series [2] (hydrobromide), “born following a Mendelian ratio; also recorded: born at a Mendelian ratio”; in series [2] (listed as PFT-a, hydrobromide), “born at Mendelian ratio”. Besides, the cutaneous hemorrhaging entry in series [1] (hydrobromide) was “reversed symptoms of edema and hemorrhaging; also recorded: eliminates visible skin hemorrhaging; also recorded: no signs of hemorrhaging”; in series [1] (listed as PFT-a, hydrobromide), “do not exhibit cutaneous hemorrhaging”; in series [2] (hydrobromide) it was “reversed symptoms of edema and hemorrhaging; also recorded: eliminates visible skin hemorrhaging; also recorded: no signs of hemorrhaging”; in series [2] (listed as PFT-a, hydrobromide) it was “do not exhibit cutaneous hemorrhaging”. Also, the “embryonic (in utero) lethality” value in series [1] (hydrobromide) and in series [2] (hydrobromide) was “rescued; also recorded: rescues in utero lethality” throughout. Moreover, the edema entry in series [1] (hydrobromide) was “reversed symptoms of edema and hemorrhaging”; in series [1] (listed as PFT-a, hydrobromide), “do not exhibit cutaneous hemorrhaging and severe edema”; in series [2] (hydrobromide), “reversed symptoms of edema and hemorrhaging; also recorded: considerably reduced”; in series [2] (listed as PFT-a, hydrobromide), “do not exhibit cutaneous hemorrhaging and severe edema”. For the same compound, the “pups died shortly after birth” value in series [2] (PFT-RP27M4 mice, 2.2 mg/kg to mothers) was found to be 100%. Further, the postnatal survival entry in series [2] (RP27M4 pups after PFT treatment of mothers) is “did not survive past the first day”.
